Test results published in patent publication US4086361A, “Aminoethyl oximes having anti-depressive activity” (U.S. Philips Corporation, priority 1975, dated 1978).
Counter-ions that a name gives are not always drawn.

What was measured:
Assay type in all cases: in vivo, male albino mice
[1] = tested on: monoamino oxidase (MAO); assay: monoamino oxidase (MAO) inhibiting effect, tryptamine hydrochloride mortality test; conditions: oral, mice; 1 hour before 250 mg/kg s.c. tryptamine hydrochloride; mortality after 18 hours
Procedure: The monoamino oxidase (MAO) inhibiting effect was determined in experiments in which a quantity of the compound to be tested was administered orally to five male albino mice. One hour later the animals were injected subcutaneously with tryptamine hydrochloride in a quantity of 250 mg/kg. […] Eighteen hours after the administration of tryptamine hydrochloride it was determined how many treated animals had died. The ED50 was determined from the results. By means of the method by Metysova, Arzneimittelforschung 13,- 1039 (1963) it was determined whether the oral administration of 200 mg of a compound to be tested to rats causes stomach ulceration.

[2] = tested on: noradrenaline (tetrabenazine ptosis); assay: noradrenaline potentiation, tetrabenazine test; conditions: Mus musculus, oral, mice, 45 min before 80 mg/kg s.c. tetrabenazine, read-out: noradrenalin potentiation ED50
Procedure: The noradrenaline potentiation was determined in the tetrabenazine test. In this test a quantity of the compound to be tested was administered orally to five male albino mice. After 45 minutes the animals were injected subcutaneously with 80 mg/kg of tetrabenazine. After another 45 minutes the degree of ptosis was determined and compared with the ptosis of animals which had received tetrabenazine alone. The ED50 was determined from the results.

[3] = tested on: serotonin (5-hydroxytryptophan); assay: serotonin potentiation, 5-hydroxytryptophan test; conditions: Mus musculus; oral, mice; 1 hour before 150 mg/kg i.p. dl-5-hydroxytryptophan
Procedure: The serotonin potentiation was determined in the 5-hydroxytryptophan test. For this purpose, the compounds to be tested were administered orally in a series of dosages to isolated male albino mice (5 mice per dosage) 1 hour prior to intraperitoneal administration of 150 mg/kg of dl-5-hydroxytryptophan. Thirty minutes after this threshold dosage the mice were observed individually and the following parameters were scored: stereotypical shaking of the head, spreading of the hindlegs, tremor, tendency to flee, lordosis, clonic stamping with the frontlegs. The ED50 value was calculated from the results.

| Compound | MAO inhibition ED50 [1] [mg/kg] | ED50 [2] [mg/kg] | ED50 [3] [mg/kg] |
| --- | --- | --- | --- |
| CCCCCC(=NOCCN)c1ccc(Br)cc1 [Br CH3, reference compound] | > 215 | 3.1 | 10 |
| Cl.N#CCCCCC(=NOCCN)c1ccc(Br)cc1 [Br CN, 4'-bromo-5-cyanovalerophenone O-(2-aminoethyl) oxime hydrochloride] | > 215 | 11.2 | 20 |
| CCOCCCCCC(=NOCCN)c1ccc(Cl)cc1.Cl [Cl CH2 OC2 H5, 4'-chloro-6-ethoxycaprophenone O-(2-aminoethyl) oxime hydrochloride] | > 215 | 7.4 | 54 |
| CCCCCC(=NOCCN)c1ccc(Cl)cc1 [Cl CH3, reference compound] | > 215 | 1.9 | 14 |
| CCOCCCCC(=NOCCN)c1ccc(Cl)cc1 [Cl OC2 H5, 4'-chloro-5-ethoxyvalerophenone O-(2-aminoethyl) oxime fumarate (1 : 1)] | > 215 | 4.3 | 36 |
| Cl.N#CCCCCC(=NOCCN)c1ccc(Cl)cc1 [Cl CN, 4'-chloro-5-cyanovalerophenone O-(2-aminoethyl) oxime hydrochloride] | > 215 | 6.8 | 20 |
| COCCOCCCCC(=NOCCN)c1ccc(Cl)cc1 [Cl OC2 H4 OCH3, 4'-chloro-5-(2-methoxyethoxy) valerophenone O-(2-aminoethyl) oxime fumarate (1 : 1)] | > 215 | 4 | 41 |
| COCCOCCCCC(=NOCCN)c1ccc(Br)cc1 [Br OC2 H4 OCH3, 4'-bromo-5-(2-methoxyethoxy) valerophenone O-(2-aminoethyl) oxime fumarate (1 : 1)] | > 215 | 6.6 | 35 |
| CCCCC(=NOCCN)c1ccc(Cl)cc1 [Cl H, reference compound] | > 215 | 5.6 | 12 |
| Cl.N#CCCCCCC(=NOCCN)c1ccc(Cl)cc1 [Cl CH2 CN, 4'-chloro-6-cyanocaprophenone O-(2-aminoethyl) oxime hydrochloride] | > 215 | 11 | 38 |
| COCCCCCC(=NOCCN)c1ccc(Cl)cc1.Cl [Cl C2 OCH3, 4'-chloro-6-methoxycaprophenone O-(2-aminoethyl) oxime hydrochloride] | > 215 | 5.3 | 36 |
| COCCCCC(=NOCCN)c1ccc(Br)cc1 [Br OCH3, 4'-bromo-5-methoxyvalerophenone O-(2-aminoethyl) oxime fumarate (1 : 1)] | > 215 | 6.6 | 22 |
